Test results from patent US8133471B2, “CLK-peptide and SLK-peptide” (New York University, priority 2003, dated 2012).
One block for each substance: values may come before it. No end group written: not given here.

Key:
[1] = system: denatured collagen type-IV; experiment: 99Tc-CLK-Peptide competitive binding to denatured collagen type-IV (gamma counter); details: 99Tc-CLK-peptide 10 μg/ml, 50 μl/well; collagen 10 μg/ml
Experimental: FIG. 18 Inhibition of 99Tc-CLK-Peptide binding by unlabeled HUI77.
FIG. 19 Inhibition of Binding of Labeled CLK-Peptide to Denatured Collagen Type-IV by mAb HUI77. Denatured collagen type-IV (10 μg/ml) was coated on microtiter wells and binding of 99Tc-labeled CLK-Peptide in the presence or absence of unlabeled CLK-peptide or mAb HUI77 was measured. As shown in the figure, 99Tc-CLK-peptide (10 μg/ml, 50 μl/well) specifically binds to denatured collagen type-IV (first bar from left). […] 99Tc-CLK-peptide was also allowed to bind to denatured collagen type-IV in the presence or absence of Mab HUI77 (fourth and fifth bars from left). […] These findings provide further evidence that the CLK-peptide binds to a similar if not identical epitope recognized by Mab HUI77.
^99Tc-CLK-Peptide was used in competitive binding studies to further characterize the CLK epitope. To evaluate the ability of HUI77 to compete with binding to denatured type-IV collagen, type-IV collagen was denatured at 60° C. for 15 minutes at a concentration of […] in PBS. […] The supernatant, washes and collagen-coated wells were counted in a gamma counter (1 minute counts in duplicate).
In addition, denatured collagen type-IV (10 μg/ml) was coated on microtiter wells and binding of ^99Tc-labeled CLK-Peptide in the presence or absence of either unlabeled CLK-peptide or mAb HUI77 was measured using a gamma counter. […]

[2] = system: Human endothelial cells (HUVECs); experiment: Endothelial cord formation in MATRIGEL; type: cell-based; details: 0 to 100 μg/ml, 24 hours
Experimental: FIG. 6 Effects of CLK Peptide on HUVEC Cord Formation in MATRIGEL®. MATRIGEL was added to 96-well plates and allowed to form three-dimensional gels. […] Representative photos were taken at a magnification of 100×. A. Untreated control. B. CLK 25 μg/ml. C. CLK 50 μg/ml. D. CLK 100 μg/ml. E. Control Peptide 100 μg/ml.
The role that the CLK cryptic collagen epitope plays in regulating endothelial cell morphogenesis and cord formation, processes important in angiogenesis, were investigated. MATRIGEL was diluted in M199 medium and 300 μl were added to the wells of a 48-well culture plate and allowed to polymerize. […] Endothelial morphogenesis and cord formation was monitored with an inverted microscope fitted with a 35 mm camera to document cord formation.

[3] = system: Human melanoma cells (M21); experiment: M21 cell adhesion to denatured or native collagen type-IV or fibronectin (Example 9); type: cell-based; details: 0-100 μg/ml
Experimental: Non-tissue culture treated 48-well plates were coated with denatured collagen type-IV at 10 μg/ml. […] Cell adhesion was quantified by measuring the O.D. of eluted dye at 600 nm. Data bars represent the mean O.D.±standard deviation from triplicate wells. Assays were completed 2 to 3 times with similar results.
Non-tissue culture treated 48-well plates were coated with native collagen type-IV or fibronectin at 10 μg/ml. Human melanoma cells (M21) were allowed to attach to the coated wells in the presence or absence of CLK-Peptide or control peptide CTW at 0-100 μg/ml. Cell adhesion was quantified by measuring the O.D. of eluted dye at 600 nm. Data bars represent the mean O.D.±standard deviation from triplicate wells. Assays were completed 2 to 3 times with similar results. A. Adhesion to native collagen type-IV. B. Adhesion to Fibronectin.
Adhesion assays were performed to study the effects of CLK-peptide on tumor cell adhesion in vitro. Microtiter wells were coated with either native collagen type-IV or the control ECM protein fibronectin. Malignant melanoma cells (M21) were allowed to bind to the coated substrates in the presence or absence of CLK peptide or a control peptide, CTW.

[4] = system: Glioblastoma (GL261) cells; experiment: GL261 glioblastoma cell adhesion to collagen type-IV; type: cell-based, murine; details: 50 μg/ml
Experimental: FIG. 21 Effects of CLK-Peptide on Glioblastoma Cell Adhesion to Denatured Collagen Type-IV.
To assess the functional significance of the HUI77/CLK cryptic epitope, cell adhesion assays using a glioblastoma cell line were performed. Microtiter plates were coated with denatured collagen type-IV (10 μg/ml). Glioblastoma (GL261) cells were resuspended in adhesion buffer in the presence or absence of CLK-peptide or a non-specific control (CTW) peptide (50 μg/ml) and the […] were incubated in the coated wells for 30 minutes. Non-attached cells were removed by washing, and attached cells quantified by staining with crystal violet.

[5] = system: Human melanoma cells M21; experiment: M21 melanoma cell adhesion to denatured collagen type-IV (Example 2); type: cell-based; details: M21 cells on denatured collagen type-IV; peptide 250 μg/ml
Source text: FIG. 1 is a chart which illustrates M21 human melanoma cell adhesion to untreated denatured type-IV collagen (NT), CLK-peptide treated denatured collagen type-IV, SLK-peptide treated denatured collagen type-IV, and SDR-peptide treated denatured collagen type-IV.
SLK peptides bind to functional epitopes within denatured collagen type-IV that regulate cellular adhesion. Non-tissue culture treated 48-well plates were coated with denatured collagen type-IV. Human melanoma cells M21 (Scripps Research Institute, La Jolla, Calif.) were allowed to attach to the coated wells in the presence or absence of the synthetic peptides CLK, SLK, and SDR, each peptide was at a concentration of 250 μg/ml. SDR peptide is a commercially available peptide that was used as a control (QED Bioscience, Inc., San Diego, Calif.).
Human denatured collagen type-IV (25 μg/ml) was immobilized on 48-well nontissue culture treated plates. Wells were washed and incubated with 1% BSA (bovine serum albumin) in PBS (phosphate-buffered saline) for one hour at 37° C. Subconfluent […] were harvested, washed, and resuspended in adhesion buffer containing RPMI-1640 medium, 1 mM MgCl2, 0.2 mM MnCl2, and 0.5% BSA. […] Cell adhesion was quantified by measuring the optical density of eluted crystal violet at a wavelength of 600 nm.

binding to denatured collagen type-IV [1]: specifically bound
Substance: 99Tc-CLK-peptide: 99Tc-labeled CLK-Peptide used in competitive binding studies (CLKQNGGNFSLG; also: 99Tc-labeled, site not given here)

Substance: CTWPRHHTTDALL (control peptide) [reference compound]
effect on endothelial cord formation [2]: little if any effect
effect on M21 cell adhesion to fibronectin [3]: Neither CLK-Peptide nor the control peptide had any effect
effect on M21 cell adhesion to native triple helical collagen type-IV [3]: Neither CLK-Peptide nor the control peptide had any effect
effect on M21 cell attachment to denatured collagen type-IV [3]: no effect
effect on glioblastoma cell adhesion to denatured collagen type-IV [4]: no effect

Substance: NH2-S-L-K-Q-N-G-G-N-F-S-L-C-COOH (H-SLKQNGGNFSLC-OH) [SLK-peptide]
blockade of melanoma cell adhesion [5]: about 50%
